According to patent publication US20080293683A1, “Hormone Replacement Therapy” (University of Kansas Medical Center, priority 2007, published 2008):
pIC50: −log10 of the molar value. Like-named read-outs stand apart in the source and are kept apart here.

Experiments:
recombinant human ERα = target: T1, recombinant human ERα (Homo sapiens, UniProt P03372); assay: ERα binding assay: competition of [3H]E2 binding by competing estrogens; conditions: for RBAα % (relative binding affinity for ERα, of E2): calculated against E2 = 100; for RBAα/RBAβ: ratio of relative binding affinities ERα over ERβ; for RBA for ERα, % of E1: relative to E1
T1 construct: purchased PanVera Corporation (Madison, Wis.); host or cells: baculovirus-mediated expression system
T1 sequence (P03372 1-595): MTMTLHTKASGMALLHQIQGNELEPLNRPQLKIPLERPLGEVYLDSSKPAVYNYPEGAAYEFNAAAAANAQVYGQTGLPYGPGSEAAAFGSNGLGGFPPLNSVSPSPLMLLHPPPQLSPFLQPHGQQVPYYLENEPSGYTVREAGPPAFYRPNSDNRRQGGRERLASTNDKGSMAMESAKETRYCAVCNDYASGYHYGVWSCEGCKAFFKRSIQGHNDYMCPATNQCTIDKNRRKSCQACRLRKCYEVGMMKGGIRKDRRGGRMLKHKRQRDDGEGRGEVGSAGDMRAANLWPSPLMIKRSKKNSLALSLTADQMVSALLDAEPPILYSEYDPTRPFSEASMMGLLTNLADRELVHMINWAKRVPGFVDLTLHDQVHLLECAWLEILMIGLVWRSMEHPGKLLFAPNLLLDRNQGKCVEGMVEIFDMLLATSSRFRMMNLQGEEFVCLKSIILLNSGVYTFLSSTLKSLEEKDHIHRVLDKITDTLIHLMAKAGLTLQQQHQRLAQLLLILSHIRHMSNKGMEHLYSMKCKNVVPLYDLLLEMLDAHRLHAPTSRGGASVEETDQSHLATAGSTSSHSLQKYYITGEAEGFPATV
Text: (§1) The recombinant human ERα and ERβ proteins and bovine serum albumin (BSA) were obtained from PanVera Corporation (Madison, Wis.). According to the supplier, the recombinant human ERα and ERβ were produced in a baculovirus-mediated expression system, and they were soluble and functionally active, with post-translational modifications similar to those found in mammalian cells. See Reid et al., Human estrogen receptor-α: Regulation by synthesis, modification and degradation, Cell. Mol. Life.
(§2) The following buffer solutions were used in the ER binding assays, and they were prepared beforehand and stored at 4° C. The binding buffer consisted of 10% glycerol, 2 mM dithiothreitol, 1 mg/mL BSA and 10 mM Tris-HCl at pH 7.5. The ERα washing buffer contained 40 mM Tris-HCl and 100 mM KCl (pH 7.4), but the ERG washing buffer contained only 40 mM Tris-HCl (adjusted to pH 7.4). The 50% hydroxylapatite slurry was prepared first by vigorously mixing 10 g hydroxylapatite with 60 mL of the Tris-HCl solution (50 mM, pH 7.4). Hydroxylapatite was then allowed to settle for 20 minutes at room temperature, and the supernatant was decanted. The above procedures were repeated 10 times, and afterwards hydroxylapatite was kept in the 50 mM Tris-HCl solution overnight at 4° C. Hydroxylapatite slurry was then adjusted to an approximate final concentration of 50% (v/v) using the same Tris-HCl solution and stored at 4° C., and the slurry was stable for up to several months.
(§3) Note that all of the estrogens were initially dissolved in pure ethanol to a stock concentration of 1 mM, and then further diluted to 100 μM with 20% aqueous ethanol. […] Immediately before the addition of the ERα or ERβ protein, it was diluted in the binding buffer and mixed gently with repetitive pipettings. […] The incubation mixture was then mixed gently and thoroughly with repetitive pipettings. […] The binding mixture was incubated at room temperature for two hours. At the end of the incubation, 100 μL of the hydroxylapatite slurry was added to each tube and the tubes were incubated on ice for 15 minutes with 3 times of brief vortexing. An aliquot (1 mL) of the appropriate washing buffer was added, mixed, and centrifuged at 10,000 g for five minutes, and the supernatants were discarded. This wash step was repeated twice. Hydroxylapatite pellets were then resuspended in 200 μL ethanol (followed by another rinse with 200 μL ethanol), and then the content was transferred to scintillation vials (containing 4 mL of the scintillation fluid) for measurement of ^3H-radioactivity with a liquid scintillation counter (Packard Tri-CARB 2900 TR; Downers Grove, Ill.).
(§4) To calculate the specific binding (pmol/mL) of the human ERα or ERβ protein at each concentration point, the following equation was used: […]
(§5) When a lower radioligand concentration is used, the corresponding IC50 value will also be relatively lower, but when the radioligand concentration increases, the corresponding IC50 value will also increase. […] Since the RBA value is a parameter that is independent of the radioligand concentration used, we thus have placed more emphasis on the RBA values instead of the absolute IC50 values in interpreting the physiological meanings of the data from in vitro receptor competition assays.

recombinant human ERβ = target: T2, recombinant human ERβ (Homo sapiens, UniProt Q92731); assay: ERβ binding assay: competition of [3H]E2 binding by competing estrogens; conditions: for RBAβ (%) (relative binding affinity for ERβ, of E2): calculated against E2 = 100; for binding affinity for ERβ (in words): concentrations up to 1000 nM
T2 construct: purchased PanVera Corporation (Madison, Wis.); host or cells: baculovirus-mediated expression system
Text: as §1, §2, §3, §4, §5

postmenopausal person = conditions: singular use; cited from earlier work

T2 sequence (Q92731 whole entry): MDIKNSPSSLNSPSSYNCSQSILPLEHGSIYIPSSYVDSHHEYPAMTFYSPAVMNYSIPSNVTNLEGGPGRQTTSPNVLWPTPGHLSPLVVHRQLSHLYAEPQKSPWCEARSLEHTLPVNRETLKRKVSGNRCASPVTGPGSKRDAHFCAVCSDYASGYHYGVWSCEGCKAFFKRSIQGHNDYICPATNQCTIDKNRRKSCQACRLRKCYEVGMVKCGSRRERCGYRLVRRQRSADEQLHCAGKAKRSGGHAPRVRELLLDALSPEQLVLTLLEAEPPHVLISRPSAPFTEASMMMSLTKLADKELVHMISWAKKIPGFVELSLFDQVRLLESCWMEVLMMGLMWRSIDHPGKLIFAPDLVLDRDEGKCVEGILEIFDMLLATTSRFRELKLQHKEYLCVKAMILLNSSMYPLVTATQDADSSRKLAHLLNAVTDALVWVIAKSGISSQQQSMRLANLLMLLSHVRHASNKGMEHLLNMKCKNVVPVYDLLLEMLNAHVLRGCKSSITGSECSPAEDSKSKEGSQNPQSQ

Row | Compound | RBAα % (relative binding affinity for ERα, of E2) (recombinant human ERα) | RBAα/RBAβ (recombinant human ERα) | pIC50 (recombinant human ERα; read-out: ERα IC50) | RBAβ (%) (relative binding affinity for ERβ, of E2) (recombinant human ERβ) | pIC50 (recombinant human ERβ; read-out: ERβ IC50) | also measured
1 | C[C@]12CC[C@@H]3c4ccc(O)cc4CC[C@H]3[C@@H]1[C@@H](O)[C@@H](O)[C@@H]2O [15α-OH-E3, 15α-Hydroxyestriol (Estetrol)] | 4% | 1.3 | 6.55 | 3% | 6.45 | RBAα/RBAβ (recombinant human ERα; listed as estetrol): about 1.3
2 | C[C@@]12C=CC[C@H]1[C@@H]1CCc3cc(O)ccc3[C@H]1CC2 [16-Estratetraen, 1,3,5(10),16-Estratetraen-3-ol] | 35% | 0.4 | 7.50 | 80% | 7.85 | 
3 | CC12CCC3c4ccc(O)cc4CCC3C1CC(=O)C2=O (centres unmarked) [16-Keto-E1, 16-Ketoestrone] | 2% | 0.2 | 6.20 | 10% | 7.05 | RBA for ERα, % of E1 (recombinant human ERα): 18%; RBA for ERβ, % of E1 (recombinant human ERβ; relative to E1): 501%; binding affinity for ERβ, fold higher than E1 (recombinant human ERβ; relative to E1): five-fold higher; relative preference for ERβ over ERα, times higher than E1 (recombinant human ERβ; relative to E1): approximately 25 times
4 | C[C@]12CC[C@@H]3c4ccc(O)cc4CC[C@H]3[C@@H]1CC(=O)[C@@H]2O [16-Keto-E2, 16-Ketoestradiol] | 1% | 0.1 | 6.95 | 18% | 7.30 | 
5 | C[C@]12CC[C@@H]3c4ccc(O)cc4CC[C@H]3[C@@H]1C[C@@H](O)C2=O [16α-OH-E1, 16α-Hydroxyestrone] |  | 0.1 |  | 35% |  | pIC50 (recombinant human ERα): 7.25; binding affinity for ERα (in words) (recombinant human ERα): twice as high as that of E1; pIC50 (recombinant human ERβ): 7.60; binding affinity for ERβ, fold higher than E1 (recombinant human ERβ; relative to E1): 18 fold
6 | CC12CCCC1C1CCc3cc(O)ccc3C1CC2 (centres unmarked) [17-Desoxy-E2, 17-Desoxyestradiol] | 16% | 0.4 | 7.15 | 45% | 7.70 | 
7 | C[C@]12CCc3c(ccc4cc(O)ccc34)[C@@H]1CCC2=O [D-Equilenin] | 2% | 0.3 |  | 7% |  | pIC50 (recombinant human ERα): 6.25; ERα RBA (recombinant human ERα; Table 4, Premarin components): 2; Ratio (ERα RBA / ERβ RBA) (recombinant human ERα; Table 4, Premarin components): 0.3; RBA for ERα, % of E1 (recombinant human ERα): 20%; pIC50 (recombinant human ERβ): 6.90; ERβ RBA (recombinant human ERβ; Table 4, Premarin components): 7; RBA for ERβ, % of E1 (recombinant human ERβ; relative to E1): 355%; binding affinity for ERβ, fold higher than E1 (recombinant human ERβ; relative to E1): more than 3 fold
8 | C/C=C(/C(=C/C)c1ccc(O)cc1)c1ccc(O)cc1 [Dienestrol, reference compound] | 37% | 0.7 | 7.52 | 56% | 7.70 | 
9 | C[C@]12CC[C@@H]3c4ccc(OS(=O)(=O)O)cc4CC[C@H]3[C@@H]1CC[C@@H]2O [E2-3-sulfate, Estradiol 3-sulfate] |  |  | < 6.00 |  | < 6.00 | binding affinity for ERα (in words) (recombinant human ERα; concentrations up to 1000 nM): basically devoid of appreciable binding affinity; binding affinity for ERβ (in words) (recombinant human ERβ): basically devoid of appreciable binding affinity
10 | C[C@]12CC[C@@H]3c4ccc(O)cc4C[C@@H](CCCCCCO)[C@H]3[C@@H]1CC[C@@H]2O [E2-7α-(CH2)6OH, 7α-(6-Hydroxyhexanyl)-17β-estradiol] | 27% | 0.7 | 7.38 | 40% | 7.65 | 
11 | O=c1c(-c2ccc(O)cc2)coc2cc(O)cc(O)c12 [Genistein] |  |  |  |  |  | effectiveness as hormone replacement therapy (postmenopausal person): ineffective
12 | CC[C@H](c1ccc(O)cc1)[C@@H](CC)c1ccc(O)cc1 [Hexestrol, reference compound] | 31% | 0.5 | 7.44 | 60% | 7.73 | 
13 | O=c1c(O)c(-c2cc(O)c(O)c(O)c2)oc2cc(O)cc(O)c12 [Myricetin, reference compound] |  |  | < 6.00 |  | < 6.00 | binding affinity for ERα (in words) (recombinant human ERα; concentrations up to 1000 nM): no appreciable binding affinity; binding affinity for ERβ (in words) (recombinant human ERβ): no appreciable binding affinity
